Results published in patent US9340577B2, “HLA binding motifs and peptides and their uses” (priority 1992, dated 2016).
pIC50: −log10 of the molar value. Like-named read-outs stand apart in the source and are kept apart here. No end group written: not given here.

Experiments:
DRB1*1101 = DRB1*1101 (Homo sapiens, UniProt P01903+P01911, A100R/A169T/A87E/I96F/K41T/L162R/M171V/P40S/Q125H/Q178H/Q39Y/Q99D/R42S/S66Y/T262R/V115G/W38E); assay: biochemical; settings: Binding affinity DRB1 *1101
DRB1*1302 = DRB1*1302 (Homo sapiens, UniProt P01903+P01911, A100E/A169T/K41T/L162R/M171V/P40S/Q125H/Q178H/Q39Y/Q99D/R42S/S66N/T262R/V115G/W38E/Y61H); assay: biochemical; assay type: binding
Sequence of DRB1*1302 (P01903 26-254 limits assumed, other chains not shown): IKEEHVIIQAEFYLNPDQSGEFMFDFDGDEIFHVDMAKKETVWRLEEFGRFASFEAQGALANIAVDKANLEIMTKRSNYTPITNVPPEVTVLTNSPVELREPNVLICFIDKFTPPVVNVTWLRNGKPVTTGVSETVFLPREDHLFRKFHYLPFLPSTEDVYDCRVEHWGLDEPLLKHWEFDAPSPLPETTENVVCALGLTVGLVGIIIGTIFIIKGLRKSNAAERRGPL

DRB5*0101 = DRB5*0101 (Homo sapiens, UniProt P01903+Q30154); assay: biochemical
DRB1*0802 = DRB1*0802 (Homo sapiens, UniProt P01903+P01911, A100R/A103L/A169T/F76Y/H45Y/I96F/K41T/L162R/M171V/P40S/Q125H/Q178H/Q39Y/Q99D/R218S/R42G/S66Y/V115G/W38E); assay: biochemical; assay type: binding
DR1 (DRB1*0101) = DR1 (DRB1*0101) (Homo sapiens, UniProt P01903+P01911, A100R/D57E/F55L/F60I/F76Y/I96L/L162R/M171V/P40L/Q125E/R42F/V115G/Y59C); assay: biochemical; assay type: binding
DRB1*0901 = DRB1*0901 (Homo sapiens, UniProt P01903+P01911, A100R/A103E/D57H/D86V/F55Y/F60I/F76Y/I96F/K127E/L162R/M171V/P40D/Q125H/Q99R/R33Q/R42F/S133A/S66N/T210M/V115G/W38K/Y107V/Y59G/Y89S); assay: biochemical; assay type: binding
DR4w4 (DRB1*0401) = DR4w4 (DRB1*0401) (Homo sapiens, UniProt P01903+P01911, A100K/A169T/F76Y/I96L/K127E/L162R/M171V/N62H/P40V/Q125Y/R42H/S133A/S149N/S66Y/V115G/V209L/W38E); assay: biochemical; assay type: binding
DR7 (DRB1*0701) = DR7 (DRB1*0701) (Homo sapiens, UniProt P01903+P01911, A100R/A102G/A103Q/D57E/D86V/E43K/F76Y/K127E/L162R/M171V/P40G/Q125H/Q99D/R33Q/R42Y/R54Q/S133A/S66F/T210M/V115G/Y107V/Y59L/Y89S); assay: biochemical; assay type: binding
DRB1*1501 = DRB1*1501 (Homo sapiens, UniProt P01903+P01911); assay: biochemical; assay type: binding
A*6802 = A*6802 (Homo sapiens, UniProt P04439, A269V/D140Y/D185E/E176V/E277Q/E87N/F33Y/G231S/I121R/I166T/I218V/L180W/L300P/L318F/N151K/P208A/P217A/Q86R/R138H/R169H/S129P/T345S/V36M); assay: biochemical; assay type: binding
A2.1 HLA molecules = A2.1 HLA molecules (Homo sapiens, UniProt P04439, D140Y/D185E/D98H/E176V/E277Q/G131W/G231S/I119V/I121R/I166T/I218V/L300P/L318F/N151K/N90K/P208A/P217A/Q86G/Q94H/R138H/R169H/T345S); assay type: binding; set-up: A*0201 / A2.1 Binding / A2 Bind. / A2 / A2.1 (binding capacity): scale not given here
HLA-A3.2 (A*0301) = HLA-A3.2 (A*0301) (Homo sapiens, UniProt P04439); assay: biochemical; assay type: binding; settings: Table 164, MAGE peptides; binding value to HLA-A3.2, no unit given
HLA-A*0201 (HLA-A2.1) = HLA-A*0201 (HLA-A2.1) (Homo sapiens, UniProt P04439, D140Y/D185E/D98H/E176V/E277Q/G131W/G231S/I119V/I121R/I166T/I218V/L300P/L318F/N151K/N90K/P208A/P217A/Q86G/Q94H/R138H/R169H/T345S); assay: biochemical; assay type: binding
HLA-A11 (A*1101) = HLA-A11 (A*1101) (Homo sapiens, UniProt P04439, A114D/D185E/E176A/F33Y/L180Q/S129P/T187R); assay: biochemical; assay type: binding; set-up: A11: unit not given here

Sequence of DRB1*1101 (P01903 26-254 limits assumed, other chains not shown): as above

In the case of GKSYFGMSLIHFLKG [Peptide 89.0146], the pIC50 (DRB1*1101) was < 4.70, the pIC50 (DRB1*1302) was < 4.70 and the pIC50 (DRB5*0101; Binding affinity DRB5 *0101) was < 4.70. For the same molecule, the pIC50 (DRB1*0802) was < 4.70, the pIC50 (DR1 (DRB1*0101)) was < 4.70 and the pIC50 (DRB1*0901) was < 4.70. For the same molecule, the pIC50 (DR4w4 (DRB1*0401)) was 6.25, the pIC50 (DR7 (DRB1*0701)) was < 4.70 and the pIC50 (DRB1*1501) was < 4.70.

For LLLPPLERLTL [Peptide 73.0157], the pIC50 (A*6802) was < 4.70.

With ALGLVCVQA the “A2 Bind.” value (A2.1 HLA molecules) was 0.0150, the “A2.1 relative binding (ratio of binding of test peptide relative to standard peptide)” value (A2.1 HLA molecules) was 0.015 and the A3.2 (HLA-A3.2 (A*0301)) was <0.0002. For the same molecule, the A2.1 (HLA-A*0201 (HLA-A2.1)) was 0.015 and the A11 (HLA-A11 (A*1101)) was <0.0002.

KVADLVGFLLL was tested, and the “A2 Bind.” value (A2.1 HLA molecules) was 0.0200 and the “binding to HLA-A2.1 (column 3; no allele head shown for these rows)” value (HLA-A*0201 (HLA-A2.1)) was 0.020.

In the case of `CC[C@H](C)[C@H](NC(=O)[C@H](CCC(N)=O)NC(=O)[C@@H](NC(=O)[C@H](CO)NC(=O)[C@H](CC(=O)O)NC(=O)[C@@H]1CCCN1C(=O)[C@@H](NC(=O)[C@H](C)NC(=O)[C@@H](NC(=O)[C@@H](NC(=O)[C@H](CC(N)=O)NC(=O)[C@H](CC(C)C)NC(=O)[C@@H](N)Cc1ccccc1)[C@@H](C)O)C(C)C)[C@@H](C)CC)C(C)C)C(=O)N[C@@H](CC(C)C)C(=O)N[C@H](C(=O)O)C(C)C` [Peptide 1601.20], the pIC50 (DRB1*1101) was < 4.70, the pIC50 (DRB1*1302) was 7.05 and the pIC50 (DRB5*0101; Binding affinity DRB5 *0101) was < 4.70. The pIC50 (DRB1*0802) was < 4.70.

Work on “787.35 (AAIGFFFFKKGIA; also: non-natural residue (43)) [Peptide 787.35]” yielded a pIC50 (DR4w4 (DRB1*0401); read-out: DRB1*0401) of 6.59.

For QMMPKTGFLV, the “A2 Bind.” value (A2.1 HLA molecules) was 0.0500 and the “binding to HLA-A2.1 (column 3; no allele head shown for these rows)” value (HLA-A*0201 (HLA-A2.1)) was 0.050.

With WMELSVMEV the “A2 Bind.” value (A2.1 HLA molecules) was 0.0410 and the “binding to HLA-A2.1 (column 3; no allele head shown for these rows)” value (HLA-A*0201 (HLA-A2.1)) was 0.041.

With HLYIFATCLGL the “A2 Bind.” value (A2.1 HLA molecules) was 0.0410 and the “binding to HLA-A2.1 (column 3; no allele head shown for these rows)” value (HLA-A*0201 (HLA-A2.1)) was 0.041.

In the case of KMADLVGFLV, the “A2 Bind.” value (A2.1 HLA molecules) was 1.5000 and the “binding to HLA-A2.1 (column 3; no allele head shown for these rows)” value (HLA-A*0201 (HLA-A2.1)) was 1.5.

With IMPKAGLLIIV the “A2 Bind.” value (A2.1 HLA molecules) was 0.0130 and the “binding to HLA-A2.1 (column 3; no allele head shown for these rows)” value (HLA-A*0201 (HLA-A2.1)) was 0.013.

In the case of “839.03 (AAAATKAAAA; also: non-natural residues (14), (35)) [Peptide 839.03]”, the pIC50 (DR4w4 (DRB1*0401); read-out: DRB1*0401) was < 6.30.

In the case of “702.17 (AYAAAKA; also: non-natural residues (20)) [Peptide 702.17]”, the pIC50 (DR4w4 (DRB1*0401); read-out: DRB1*0401) was 6.60 and the pIC50 (DR7 (DRB1*0701); read-out: DRB1*0701) was 5.08.

With QLVFGIELMEV the “A2 Bind.” value (A2.1 HLA molecules) was 0.3400 and the “binding to HLA-A2.1 (column 3; no allele head shown for these rows)” value (HLA-A*0201 (HLA-A2.1)) was 0.34.

For RTLHDLCQA [Peptide 1481.46], the pIC50 (A*6802) was < 4.70.

LLGDNQIMV was tested, and the “A2 Bind.” value (A2.1 HLA molecules) was 0.0430 and the “binding to HLA-A2.1 (column 3; no allele head shown for these rows)” value (HLA-A*0201 (HLA-A2.1)) was 0.043.

Work on “787.39 (AAIGGIFIFKKDA; also: non-natural residue (43)) [Peptide 787.39]” yielded a pIC50 (DR4w4 (DRB1*0401); read-out: DRB1*0401) of 6.10.

For YLQLVFGIEV, the “A2 Bind.” value (A2.1 HLA molecules) was 0.3700 and the “binding to HLA-A2.1 (column 3; no allele head shown for these rows)” value (HLA-A*0201 (HLA-A2.1)) was 0.37.

For KMVELVHFLLL, the “A2 Bind.” value (A2.1 HLA molecules) was 0.6700 and the “binding to HLA-A2.1 (column 3; no allele head shown for these rows)” value (HLA-A*0201 (HLA-A2.1)) was 0.67.

GTLEEVPTA was tested, and the “A2 Bind.” value (A2.1 HLA molecules) was 0.0130 and the “binding to HLA-A2.1 (column 3; no allele head shown for these rows)” value (HLA-A*0201 (HLA-A2.1)) was 0.013.

For AKSTWYGKPTGAGPKDNGGA [Peptide 620.03], the pIC50 (DRB5*0101; DRB5*0101) was 5.00.

With SLHCKPEEA the “A2 Bind.” value (A2.1 HLA molecules) was 0.0130, the “A2.1 relative binding (ratio of binding of test peptide relative to standard peptide)” value (A2.1 HLA molecules) was 0.013 and the A3.2 (HLA-A3.2 (A*0301)) was <0.0002. The A2.1 (HLA-A*0201 (HLA-A2.1)) was 0.013 and the A11 (HLA-A11 (A*1101)) was 0.

Work on Ac-AAAKAAAAAAFAA [Peptide 730.09] yielded a pIC50 (DR4w4 (DRB1*0401)) of 6.38.

Work on QYIKANSSFIGITE yielded a pIC50 (DR4w4 (DRB1*0401)) of 7.89.

TAEYGDKWLDAKSTWYGKPT [Peptide 620.02] was tested, and the pIC50 (DRB5*0101; DRB5*0101) was 5.00.

For SMHCKPEEV, the “A2 Bind.” value (A2.1 HLA molecules) was 0.0180 and the “binding to HLA-A2.1 (column 3; no allele head shown for these rows)” value (HLA-A*0201 (HLA-A2.1)) was 0.018.

Ac-NPTKHKWEAAHVAEQLAA [Peptide 724.01] gave a pIC50 (DRB1*0802) of 4.60.
